Source: the NIST ThermoML archive (doi:10.1021/je9008969)

Assays:
[1] = cn = amount concentration of the nth substance listed, in mol/dm3; details: 298.15 K, 101 kPa, Liquid, Alternating current cell with electrodes
[2] = Liquid; Distillation
[3] = mn = molality of the nth substance listed, in mol/kg; details: 298.15 K, 101 kPa, Liquid, Alternating current cell with electrodes

CCCC[n+]1ccccc1.[O-][Cl+3]([O-])([O-])[O-] [1-butylpyridinium perchlorate] + CC(=O)CC(C)C
[1]
Details	molar conductivity [S·m2/mol]
c1 = 0.0001223	0.00753
c1 = 0.0001384	0.00709
c1 = 0.0001791	0.00669
c1 = 0.0002332	0.00627
c1 = 0.0003126	0.00579
c1 = 0.0004224	0.00533
c1 = 0.0005585	0.0049
c1 = 0.0007544	0.00446
c1 = 0.001004	0.00408
c1 = 0.001345	0.00369
c1 = 0.001798	0.00335
c1 = 0.002419	0.00303
c1 = 0.00324	0.00274
c1 = 0.004348	0.00248
c1 = 0.005787	0.00225

CCCCCCCCCCCCCCCC[n+]1ccccc1.[O-][Cl+3]([O-])([O-])[O-] [1-hexadecylpyridinium perchlorate] + CC(=O)CC(C)C
[1]
Details	molar conductivity [S·m2/mol]
c1 = 9.238e-05	0.00688
c1 = 0.0001329	0.0064
c1 = 0.0001691	0.00608
c1 = 0.0002261	0.00565
c1 = 0.0002954	0.00527
c1 = 0.0004138	0.0048
c1 = 0.0005388	0.00444
c1 = 0.0007214	0.00406
c1 = 0.0009671	0.0037
c1 = 0.001303	0.00335
c1 = 0.001719	0.00306
c1 = 0.002318	0.00277
c1 = 0.00312	0.0025
c1 = 0.00417	0.00226
c1 = 0.005569	0.00205

CC(=O)CC(C)C [4-methylpentan-2-one]
Details	Normal boiling temperature [°C]
[2]	114.20

CCCCCC[N+](CC)(CC)CC.[O-][Cl+3]([O-])([O-])[O-] [N,N,N-triethyl-1-hexanaminium perchlorate] + CC(=O)CC(C)C
[1]
Details	molar conductivity [S·m2/mol]
c1 = 9.437e-05	0.00808
c1 = 0.0001362	0.00766
c1 = 0.0001739	0.00732
c1 = 0.0002195	0.00695
c1 = 0.0002862	0.00655
c1 = 0.0003746	0.00614
c1 = 0.0004856	0.00574
c1 = 0.0006345	0.00534
c1 = 0.000817	0.00498
c1 = 0.001056	0.00462
c1 = 0.001385	0.00426
c1 = 0.00181	0.00392
c1 = 0.002334	0.00362
c1 = 0.003049	0.00333
c1 = 0.003975	0.00307

CCCCCCC[N+](CCCCCCC)(CCCCCCC)CCCCCCC.[O-][Cl+3]([O-])([O-])[O-] [N,N,N-triheptylheptan-1-aminium perchlorate] + CC(=O)CC(C)C
[1]
Details	molar conductivity [S·m2/mol]
c1 = 7.179e-05	0.00765
c1 = 0.0001036	0.00729
c1 = 0.0001318	0.00704
c1 = 0.0001594	0.00683
c1 = 0.0002244	0.00639
c1 = 0.0002974	0.00603
c1 = 0.000405	0.00563
c1 = 0.0005438	0.00525
c1 = 0.0007266	0.00487
c1 = 0.0009775	0.0045
c1 = 0.001306	0.00414
c1 = 0.001751	0.0038
c1 = 0.002355	0.00348
c1 = 0.003149	0.00319
c1 = 0.004208	0.00292

CCCCCCCCCCCCCCCC[N+](C)(C)C.[O-][Cl+3]([O-])([O-])[O-] [N,N,N-trimethyl-1-hexadecanaminium perchlorate] + CC(=O)CC(C)C
[1]
Details	molar conductivity [S·m2/mol]
c1 = 0.0001172	0.00637
c1 = 0.0001513	0.006
c1 = 0.0002096	0.00553
c1 = 0.0002636	0.00519
c1 = 0.0003584	0.00476
c1 = 0.0005071	0.00427
c1 = 0.0006588	0.00394
c1 = 0.0008706	0.00359
c1 = 0.001168	0.00326
c1 = 0.001547	0.00295
c1 = 0.002106	0.00265
c1 = 0.002797	0.0024
c1 = 0.00376	0.00216
c1 = 0.005012	0.00194
c1 = 0.006683	0.00175

CCCCCCCCCCCCCCCCCC[N+](C)(C)C.[O-][Cl+3]([O-])([O-])[O-] [N,N,N-trimethyl-1-octadecanaminium perchlorate] + CC(=O)CC(C)C
[1]
Details	molar conductivity [S·m2/mol]
c1 = 0.0001049	0.00634
c1 = 0.0001371	0.00601
c1 = 0.0001741	0.00568
c1 = 0.0002263	0.00531
c1 = 0.0002892	0.00497
c1 = 0.0003809	0.00458
c1 = 0.0004892	0.00425
c1 = 0.0006311	0.00392
c1 = 0.0008148	0.00361
c1 = 0.001062	0.0033
c1 = 0.001386	0.00302
c1 = 0.001802	0.00276
c1 = 0.002337	0.00251
c1 = 0.003032	0.00229

CCCC[N+](CCCC)(CCCC)CCCC.[O-][Cl+3]([O-])([O-])[O-] [tetrabutylammonium perchlorate] + CC(=O)CC(C)C
[1]
Details	molar conductivity [S·m2/mol]
c1 = 9.747e-05	0.00773
c1 = 0.0001341	0.00737
c1 = 0.0001902	0.00693
c1 = 0.0002367	0.00662
c1 = 0.0003186	0.00622
c1 = 0.0004325	0.00577
c1 = 0.0005781	0.00535
c1 = 0.0007683	0.00495
c1 = 0.001016	0.00457
c1 = 0.00138	0.00418
c1 = 0.001839	0.00383
c1 = 0.002457	0.00351
c1 = 0.003309	0.0032
c1 = 0.004418	0.00292
c1 = 0.005893	0.00267

CC[N+](CC)(CC)CC.[O-][Cl+3]([O-])([O-])[O-] [tetraethylammonium perchlorate] + CC(=O)CC(C)C
[1]
Details	molar conductivity [S·m2/mol]
c1 = 1.622e-05	0.00917
c1 = 2.705e-05	0.00898
c1 = 3.499e-05	0.00888
c1 = 4.526e-05	0.00874
c1 = 5.823e-05	0.00852
c1 = 7.469e-05	0.0083
c1 = 9.761e-05	0.00812

CCCCCC[N+](CCCCCC)(CCCCCC)CCCCCC.[O-][Cl+3]([O-])([O-])[O-] [tetrahexylammonium perchlorate] + CC(=O)CC(C)C
[1]
Details	molar conductivity [S·m2/mol]
c1 = 9.876e-05	0.00727
c1 = 0.0001295	0.00705
c1 = 0.0001762	0.00672
c1 = 0.0002207	0.00645
c1 = 0.0002798	0.00613
c1 = 0.0003687	0.00578
c1 = 0.0004788	0.00543
c1 = 0.0006209	0.00509
c1 = 0.0008088	0.00475
c1 = 0.001056	0.00441
c1 = 0.00138	0.00409
c1 = 0.001782	0.0038
c1 = 0.002321	0.00351
c1 = 0.003006	0.00324
c1 = 0.003917	0.00299

C[N+](C)(C)C.[O-][Cl+3]([O-])([O-])[O-] [tetramethylammonium perchlorate] + CC(=O)CC(C)C
[1]
Details	molar conductivity [S·m2/mol]
c1 = 9.338e-06	0.0113
c1 = 1.196e-05	0.0112
c1 = 1.53e-05	0.0111
c1 = 1.98e-05	0.0108
c1 = 2.582e-05	0.0105
c1 = 3.276e-05	0.0101
c1 = 4.292e-05	0.00975
c1 = 5.528e-05	0.00934
c1 = 7.008e-05	0.00894
c1 = 9.231e-05	0.00847

CCCCC[N+](CCCCC)(CCCCC)CCCCC.[O-][Cl+3]([O-])([O-])[O-] [tetrapentylammonium perchlorate] + CC(=O)CC(C)C
[3]
Details	molar conductivity [S·m2/mol]
m1 = 9.66e-05	0.00743
m1 = 0.0001207	0.00719
m1 = 0.0001685	0.0068
m1 = 0.0002146	0.00647
m1 = 0.0002922	0.00606
m1 = 0.0004004	0.00562
m1 = 0.0005296	0.00524
m1 = 0.0007017	0.00487
m1 = 0.0009021	0.00468
m1 = 0.001262	0.00413
m1 = 0.001674	0.0038
m1 = 0.002257	0.00347
m1 = 0.003014	0.00318
m1 = 0.004036	0.0029
m1 = 0.0054	0.00265
